According to US8741910B2, “Soluble guanylate cyclase activators” (Merck Sharp & Dohme Corp., priority 2008, dated 2014):

What follows are compounds tested against T1, sGC α1/β1 heterodimer (Homo sapiens, UniProt Q02108+Q02153) (assay: Cell-Based sGC Functional Assay (CASA Assay)). Conditions: CHO-K1/sGC cells, intracellular cGMP by HTRF, 1 hr at 37 °C.
T1 construct: expressed in transfected cells; host or cells: CHO-K1 (clone #7, CHO-K1/sGC)
T1 sequence (Q02108 1-690): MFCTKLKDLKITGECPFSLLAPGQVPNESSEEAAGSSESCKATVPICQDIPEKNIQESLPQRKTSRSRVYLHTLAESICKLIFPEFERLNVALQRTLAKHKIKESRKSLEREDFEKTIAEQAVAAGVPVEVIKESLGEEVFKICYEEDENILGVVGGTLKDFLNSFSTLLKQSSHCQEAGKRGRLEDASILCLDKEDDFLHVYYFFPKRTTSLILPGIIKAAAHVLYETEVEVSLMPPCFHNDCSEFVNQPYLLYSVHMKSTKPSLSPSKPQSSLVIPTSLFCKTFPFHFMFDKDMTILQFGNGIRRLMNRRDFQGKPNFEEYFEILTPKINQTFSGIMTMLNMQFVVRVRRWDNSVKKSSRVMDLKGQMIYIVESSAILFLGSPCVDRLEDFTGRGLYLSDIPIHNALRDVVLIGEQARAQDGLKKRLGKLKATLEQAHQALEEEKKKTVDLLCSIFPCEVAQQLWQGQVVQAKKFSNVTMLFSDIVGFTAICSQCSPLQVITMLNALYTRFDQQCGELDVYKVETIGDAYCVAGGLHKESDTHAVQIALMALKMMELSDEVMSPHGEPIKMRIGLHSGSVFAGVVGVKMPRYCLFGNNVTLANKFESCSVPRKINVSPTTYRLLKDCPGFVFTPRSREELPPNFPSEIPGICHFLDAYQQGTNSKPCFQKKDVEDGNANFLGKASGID
T1 sequence (Q02153 1-619): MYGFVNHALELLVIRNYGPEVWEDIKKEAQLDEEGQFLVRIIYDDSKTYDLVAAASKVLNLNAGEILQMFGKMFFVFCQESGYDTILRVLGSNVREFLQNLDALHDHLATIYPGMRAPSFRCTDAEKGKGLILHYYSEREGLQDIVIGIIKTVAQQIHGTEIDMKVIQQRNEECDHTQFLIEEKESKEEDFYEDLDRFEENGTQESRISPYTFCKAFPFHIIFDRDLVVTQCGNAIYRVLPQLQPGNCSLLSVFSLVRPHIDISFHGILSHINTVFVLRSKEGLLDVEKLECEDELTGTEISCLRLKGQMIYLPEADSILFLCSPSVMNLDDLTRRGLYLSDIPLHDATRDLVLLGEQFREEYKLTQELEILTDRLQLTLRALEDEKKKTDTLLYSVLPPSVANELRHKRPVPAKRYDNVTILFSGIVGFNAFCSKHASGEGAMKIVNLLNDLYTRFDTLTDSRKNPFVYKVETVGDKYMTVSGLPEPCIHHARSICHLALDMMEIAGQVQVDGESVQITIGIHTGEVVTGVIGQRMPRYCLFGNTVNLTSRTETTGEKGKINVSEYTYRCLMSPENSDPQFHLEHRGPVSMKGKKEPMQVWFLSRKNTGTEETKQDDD
Text: Increases in cGMP levels affect several physiological processes including vasorelaxation through multiple downstream pathways. […] Heme-dependent activators (HDAs) preferentially activate sGC containing a ferrous heme group. To determine the effect of sGC activators on enzyme activity, the CASA assay was developed to monitor the generation of cGMP in a cell line that stably expresses the heterodimeric sGC protein.
A CHO-K1 cell line stably expressing the sGC α1/β1 heterodimer was generated using a standard transfection protocol. CHO-K1 cells were transfected with plasmids pIREShyghsGCα1 and pIRESneo-hsGCβ1 simultaneously using FUGENE reagent. Clones that stably express both subunits were selected with hygromycin and neomycin for ˜2 weeks. Clone #7 was chosen for the assay and was designated CHO-K1/sGC. CHO-K1/sGC cells were maintained in F-K12 medium containing 10% heat-inactivated Fetal Bovine Serum (FBS), 100 μg/mL penicillin/streptomycin, 0.5 mg/mL hygromycin and 0.25 mg/mL G418. […] IBMX (3-isobutyl-1-methylxanthin, 0.5 mM) was added to inhibit degradation of cGMP. Compounds were diluted from DMSO stock solutions and added to the assay at a final DMSO concentration of 1%. […] At the end of the incubation period, the reaction was terminated and the cells were lysed. The level of intracellular cGMP was determined using an HTRF-based assay kit (CisBio, 62GM2PEC), which detects the displacement of a fluorescence labeled cGMP from its specific antibody.

Row | EC50 | Compound
1 | 24 nM | CC1(C)C(=O)Nc2nc(-c3nc(Cc4c(F)ccc(F)c4F)n4cc(Cl)ccc34)nc(N)c21 [Example 59, 4-amino-2-[6-chloro-3-(2,3,6-trifluorobenzyl)imidazo[1,5-a]pyridin-1-yl]-5,5-dimethyl-5,7-dihydro-6H-pyrrolo[2,3-d]pyrimidin-6-one]
2 | 31 nM | CC1(C)C(=O)Nc2nc(-c3nc(Cc4c(F)ccc(F)c4F)n4cc(F)ccc34)nc(N)c21 [Example 60, 4-amino-2-[6-fluoro-3-(2,3,6-trifluorobenzyl)imidazo[1,5-a]pyridin-1-yl]-5,5-dimethyl-5,7-dihydro-6H-pyrrolo[2,3-d]pyrimidin-6-one]
3 | 83 nM | CC1(C)C(=O)Nc2nc(-c3nn(CCC(F)(F)C(F)(F)F)c4cc(Cl)ccc34)nc(N)c21 [Example 111, 4-amino-2-[6-chloro-1-(3,3,4,4,4-pentafluorobutyl)-1H-indazol-3-yl]-5,5-dimethyl-5,7-dihydro-6H-pyrrolo[2,3-d]pyrimidin-6-one]
